Assay results taken from the supplement of paper PMC13380429.

How the values were obtained:
[1] = system: A549-ACE2 infected with SARS-CoV-2; assay: cell count relative to DMSO; higher = less toxic; conditions: 24 h
[2] = system: A549-ACE2 infected with SARS-CoV-2; assay: morphology score (similarity to uninfected cells); higher = more like uninfected cells; conditions: 24 h
Caco-2 [3] = assay: cell viability relative to DMSO; higher = less toxic; conditions: 72 h
Vero E6 [4] = assay: as above; conditions: 72 h
HepG2 [5] = assay: as above; conditions: 72 h
Calu-3 [6] = assay: as above; conditions: 72 h
U2OS [7] = assay: as above; conditions: 72 h
Caco-2 [8] = assay: drug sensitivity score (DSS) for viability; higher = more toxic; extreme values may be limits of the assay; conditions: 72 h
Vero E6 [9] = assay: as above; conditions: 72 h
HepG2 [10] = assay: as above; conditions: 72 h
Calu-3 [11] = assay: as above; conditions: 72 h
U2OS [12] = assay: as above; conditions: 72 h
Caco-2 [13] = assay: relative viability EC50 (midpoint between 100% and the lowest measured viability); higher = less toxic; conditions: 72 h
Vero E6 [14] = assay: as above; conditions: 72 h
HepG2 [15] = assay: as above; conditions: 72 h
Calu-3 [16] = assay: as above; conditions: 72 h
U2OS [17] = assay: as above; conditions: 72 h
[18] = system: A549-ACE2 infected with SARS-CoV-2; assay: SARS-CoV-2 infection rate relative to DMSO; higher = more infection; conditions: 24 h
A549-ACE2 = assay: drug-induced phospholipidosis relative to tamoxifen; higher = more phospholipidosis

CO[C@H]1C[C@H](O[C@@H]2/C(C)=C/C[C@@H]3C[C@@H](C[C@]4(CC[C@H](C)[C@@H](C5CCCCC5)O4)O3)OC(=O)[C@@H]3C=C(C)/C(=N/O)[C@H]4OC/C(=C\C=C\[C@@H]2C)[C@]43O)O[C@@H](C)[C@@H]1O [selamectin]
Conditions	SARS-CoV-2 infection rate, [18] [%]	cell count, [1] [%]	cell viability, Caco-2 [3] [%]	cell viability, Calu-3 [6] [%]	cell viability, HepG2 [5] [%]	cell viability, U2OS [7] [%]	cell viability, Vero E6 [4] [%]	morphology score, [2]
1 nM	–	–	112	101	113	103	104	–
10 nM	–	–	119	106	120	98	104	–
100 nM	–	–	105	96.2	117	103	104	–
0.3 µM	103	96	–	–	–	–	–	-0.14
1000 nM	–	–	79.9	104	121	98.8	107	–
3 µM	79	105	–	–	–	–	–	0.43
10 µM	48	93	–	–	–	–	–	0.75
10000 nM	–	–	86.5	91.2	84.1	90.4	86.7	–
30 µM	15	111	–	–	–	–	–	0.7

Conditions	drug sensitivity score	relative viability EC50 [µM]
Caco-2 [8]	2.5	–
Caco-2 [13]	–	> 10
Calu-3 [11]	0	–
Calu-3 [16]	–	> 10
HepG2 [10]	0.1	–
HepG2 [15]	–	> 10
U2OS [12]	0	–
U2OS [17]	–	> 10
Vero E6 [9]	0	–
Vero E6 [14]	–	> 10

O=C(CCCN1CCC2(CC1)C(=O)NCN2c1ccccc1)c1ccc(F)cc1 [spiperone]
Conditions	SARS-CoV-2 infection rate, [18] [%]	cell count, [1] [%]	cell viability, Caco-2 [3] [%]	cell viability, Calu-3 [6] [%]	cell viability, HepG2 [5] [%]	cell viability, U2OS [7] [%]	cell viability, Vero E6 [4] [%]	morphology score, [2]
1 nM	–	–	99.3	105	91.6	100	99.8	–
10 nM	–	–	92.7	84.1	108	96.6	103	–
100 nM	–	–	96.2	108	98.7	101	96.1	–
0.3 µM	102	99	–	–	–	–	–	-0.22
1000 nM	–	–	99.3	103	91.1	98.5	95.8	–
3 µM	86	114	–	–	–	–	–	0.32
10 µM	31	97	–	–	–	–	–	0.19
10000 nM	–	–	71.9	74.1	62.5	94.6	98.3	–
30 µM	35	77	–	–	–	–	–	0.03

Conditions	drug sensitivity score	relative viability EC50 [µM]
Caco-2 [8]	1.3	–
Calu-3 [11]	0.8	–
HepG2 [10]	3.2	–
U2OS [12]	0	–
U2OS [17]	–	> 10
Vero E6 [9]	0	–
Vero E6 [14]	–	> 10

drug-induced phospholipidosis [%], A549-ACE2
Conditions	0.3 µM	0.833333 µM	3.33333 µM	6.66667 µM	10 µM	30 µM
24 h	-1.11	-1.19	0.56	7.38	19.1	21
48 h	1.78	-0.92	2.83	6.18	13.4	–
72 h	1.57	-0.0916	2.59	6.4	14.9	–

COc1cc2c(cc1OC)-c1c/c(=N\c3c(C)cc(C)cc3C)n(C)c(=O)n1CC2 [trequinsin]
Conditions	SARS-CoV-2 infection rate, [18] [%]	cell count, [1] [%]	cell viability, Caco-2 [3] [%]	cell viability, Calu-3 [6] [%]	cell viability, HepG2 [5] [%]	cell viability, U2OS [7] [%]	cell viability, Vero E6 [4] [%]	morphology score, [2]
1 nM	–	–	97.5	102	102	96.8	92.2	–
10 nM	–	–	91.9	89.5	94.4	99.7	97.1	–
100 nM	–	–	97.2	94.3	102	97.6	97	–
0.3 µM	97	100	–	–	–	–	–	0.06
1000 nM	–	–	97	100	92.8	99.6	92.7	–
3 µM	93	103	–	–	–	–	–	0.26
10 µM	59	111	–	–	–	–	–	0.67
10000 nM	–	–	86.4	85	84.1	95.5	89.1	–
30 µM	19	110	–	–	–	–	–	0.75

Conditions	drug sensitivity score	relative viability EC50 [µM]
Caco-2 [8]	0	–
Caco-2 [13]	–	> 10
Calu-3 [11]	0.2	–
Calu-3 [16]	–	> 10
HepG2 [10]	0.9	–
HepG2 [15]	–	> 10
U2OS [12]	0	–
U2OS [17]	–	> 10
Vero E6 [9]	0	–
Vero E6 [14]	–	> 10

drug-induced phospholipidosis [%], A549-ACE2
Conditions	0.3 µM	0.833333 µM	3.33333 µM	6.66667 µM	10 µM	30 µM
24 h	3.52	0.24	10.1	3.08	1.51	20.8
48 h	3.24	1.48	5.48	3.57	5.51	32.1
72 h	4.95	1.02	3.84	4.01	6.79	–

CC(C)[C@]12O[C@H]1[C@@H]1O[C@]13[C@]1(O[C@H]1C[C@H]1C4=C(CC[C@@]13C)C(=O)OC4)[C@@H]2O [triptolide]
cell viability [%]
Conditions	Caco-2 [3]	Calu-3 [6]	HepG2 [5]	U2OS [7]	Vero E6 [4]
1 nM	84.5	108	79.4	94	101
10 nM	56.5	71.5	30	34.2	55.4
100 nM	24.7	25.8	4.6	1.5	1.6
1000 nM	24.7	34.9	7.7	1.8	5.4
10000 nM	27.6	34.2	6.2	2.1	5.1

Conditions	drug sensitivity score	relative viability EC50 [µM]
Caco-2 [8]	29.2	–
Caco-2 [13]	–	0.0058
Calu-3 [11]	27.1	–
Calu-3 [16]	–	0.0121
HepG2 [10]	39.2	–
HepG2 [15]	–	0.0036
U2OS [12]	38.2	–
U2OS [17]	–	0.0063
Vero E6 [9]	35.8	–
Vero E6 [14]	–	0.0108

C[C@H](CCC(=O)NCCS(=O)(=O)O)[C@H]1CC[C@H]2[C@@H]3[C@@H](O)C[C@@H]4C[C@H](O)CC[C@]4(C)[C@H]3CC[C@]12C [ursodeoxycholyltaurine]
cell viability [%]
Conditions	Caco-2 [3]	Calu-3 [6]	HepG2 [5]	U2OS [7]	Vero E6 [4]
1 nM	103	106	94.5	97.8	105
10 nM	94.9	93.9	96.7	97.4	110
100 nM	87.4	100	85.1	98.9	100
1000 nM	91.8	104	97.7	97.2	101
10000 nM	108	97	96.8	98.4	97.2

Conditions	drug sensitivity score	relative viability EC50 [µM]
Caco-2 [8]	0	–
Caco-2 [13]	–	> 10
Calu-3 [11]	0	–
Calu-3 [16]	–	> 10
HepG2 [10]	0	–
HepG2 [15]	–	> 10
U2OS [12]	0	–
U2OS [17]	–	> 10
Vero E6 [9]	0	–
Vero E6 [14]	–	> 10
